# In ChEMBL document CHEMBL5303304, “EUbOPEN Chemogenomics Library - IncuCyte” (2023):
# Legend:
# Assay type in all cases: toxicity, cell-based
# HEK-293T = assay: Incucyte cell viability with HEK293T; conditions: human, 10 µM, compound concentration 10 uM
# Fibroblast = assay: Incucyte cell viability with human fibroblast; conditions: 10 µM, compound concentration 10 uM
# U2OS = assay: Incucyte cell viability with U2OS; conditions: human, 10 µM, compound concentration 10 uM
# Note: unitless GR value; below 1 slowed growth and below 0 cell loss.
SMILES,"Growth Rate (HEK-293T; 0 h, replicate number 1)","Growth Rate (HEK-293T; 0 h, replicate number 2)","Growth Rate (HEK-293T; 6 h, replicate number 1)","Growth Rate (HEK-293T; 12 h, replicate number 2)","Growth Rate (Fibroblast; 6 h, replicate number 1)","Growth Rate (Fibroblast; 6 h, replicate number 2)","Growth Rate (Fibroblast; 12 h, replicate number 2)","Growth Rate (U2OS; 0 h, replicate number 1)","Growth Rate (U2OS; 6 h, replicate number 1)","Growth Rate (U2OS; 12 h, replicate number 1)","Growth Rate (U2OS; 12 h, replicate number 2)","Growth Rate (U2OS; 18 h, replicate number 1)","Growth Rate (U2OS; 18 h, replicate number 2)","Growth Rate (U2OS; 24 h, replicate number 1)","Growth Rate (U2OS; 24 h, replicate number 2)","Growth Rate (HEK-293T; 24 h, replicate number 2)","Growth Rate (Fibroblast; 0 h, replicate number 1)","Growth Rate (Fibroblast; 18 h, replicate number 1)","Growth Rate (Fibroblast; 18 h, replicate number 2)","Growth Rate (Fibroblast; 24 h, replicate number 2)",further results
COc1c(NC(=O)c2cc3cccc(Oc4ccnc(C(=O)N5CCN(C)CC5)c4)c3n2C)cc(C(C)(C)C)cc1NS(C)(=O)=O,0.87,-0.84,0.93,0.77,0.02,0.43,0.98,-0.03,0.82,0.79,0.69,0.83,0.7,0.84,0.69,,,,,,"Growth Rate (HEK-293T; 6 h, replicate number 2): 0.57; Growth Rate (HEK-293T; 18 h, replicate number 2): 0.93; Growth Rate (U2OS; 0 h, replicate number 2): 0.57; Growth Rate (U2OS; 6 h, replicate number 2): 0.58"
Clc1cccc(Nc2nccc(NCCCN3CCOCC3)n2)c1,,0.13,0.27,,0.51,0.14,0.39,-0.75,,,0.73,,0.82,,0.7,0.69,-0.99,0.6,0.57,0.53,"Growth Rate (HEK-293T; 12 h, replicate number 1): 0.34; Growth Rate (HEK-293T; 18 h, replicate number 1): 0.37; Growth Rate (HEK-293T; 18 h, replicate number 2): 0.82; Growth Rate (HEK-293T; 24 h, replicate number 1): 0.38; Growth Rate (Fibroblast; 0 h, replicate number 2): -0.07; Growth Rate (Fibroblast; 12 h, replicate number 1): 0.59; Growth Rate (Fibroblast; 24 h, replicate number 1): 0.48; Growth Rate (U2OS; 6 h, replicate number 2): 0.73"
C[C@@H]1Cc2c([nH]c3ccccc23)[C@@H](c2c(F)cc(/C=C/C(=O)O)cc2F)N1CC(C)(C)F [AZD-9496],-0.59,-0.31,,,,-0.38,0.62,0.01,0.39,0.94,,0.92,,0.91,,,,,0.88,0.65,
COc1ccc(NC(=O)[C@@H]2C[C@H](C)CC[C@H]2C(C)C)cc1 [ACOLTREMON],,0.02,,,,-0.34,0.74,,-0.13,0.93,,,,0.94,,,0.31,0.98,0.61,0.67,"Growth Rate (U2OS; 0 h, replicate number 2): -0.89"
Cl.Cl.N#Cc1ccc(O[C@@H]2c3ccccc3C[C@H]2N2CCC[C@@H](N)C2)c(Cl)c1,,,-0.97,-0.24,-1,0.35,0.27,-1,,0.7,0.96,0.67,0.86,0.72,0.93,-0.04,,,0.29,0.37,"Growth Rate (HEK-293T; 6 h, replicate number 2): -0.57; Growth Rate (HEK-293T; 12 h, replicate number 1): -0.93; Growth Rate (HEK-293T; 18 h, replicate number 1): -0.77; Growth Rate (HEK-293T; 18 h, replicate number 2): -0.13; Growth Rate (HEK-293T; 24 h, replicate number 1): -0.66"
CCOC(=O)c1ncn2c1[C@@H]1CCCN1C(=O)c1cc(OC)ccc1-2,0.49,1,,0.89,0.02,0.2,,-0.46,0.4,0.92,,0.9,,0.81,,0.95,0.48,0.09,,,"Growth Rate (HEK-293T; 18 h, replicate number 1): 0.83; Growth Rate (HEK-293T; 24 h, replicate number 1): 0.82; Growth Rate (Fibroblast; 0 h, replicate number 2): -0.85; Growth Rate (Fibroblast; 24 h, replicate number 1): 0.63; Growth Rate (U2OS; 0 h, replicate number 2): -0.82"
COc1cc(-c2cncc(-c3ccc(N4CCN(C(C)C)CC4)cc3)c2C)cc(F)c1C(=O)N1CCCC1,-0.5,-0.2,,,,-0.22,0.11,,,,1,,0.99,,0.89,0.92,-0.08,0.73,0.27,0.4,"Growth Rate (Fibroblast; 0 h, replicate number 2): 0.49; Growth Rate (Fibroblast; 24 h, replicate number 1): 0.76"
